Results reported in ChEMBL document CHEMBL1133635, “Caspases as targets for anti-inflammatory and anti-apoptotic drug discovery” (J Med Chem, 2000).
Where a SMILES comes first, the peptide text is derived from it. [ ]: non-standard residue; d: D form. ξ: configuration not given here. ξE = NC(CCC(=O)O)C(=O)O; βAla = NCCC(=O)O

The compounds below were run against T1, Caspase-3 (Homo sapiens, UniProt P42574) (assay: Evaluated for the dissociation constant for the inhibition of caspase-3). Conditions: read-out: Ki app.
T1 sequence (P42574 whole entry): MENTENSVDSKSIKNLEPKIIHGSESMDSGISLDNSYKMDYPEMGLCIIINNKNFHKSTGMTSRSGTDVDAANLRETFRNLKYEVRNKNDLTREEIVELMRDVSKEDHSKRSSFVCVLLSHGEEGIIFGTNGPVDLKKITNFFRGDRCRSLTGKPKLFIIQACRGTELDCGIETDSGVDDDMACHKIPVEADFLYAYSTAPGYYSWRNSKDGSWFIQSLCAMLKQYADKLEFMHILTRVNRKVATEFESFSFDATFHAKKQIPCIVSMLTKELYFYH
For `CN1C(=O)C(=O)c2cc(S(=O)(=O)N3CCC[C@H]3COc3ccccc3)ccc21`, the Ki was 15 nM.

Each compound was assayed against T2, Caspase-1 (Homo sapiens, UniProt P29466) (assay: Dissociation constant for inhibition of caspase-1). Conditions: not given.
T2 sequence (P29466 whole entry): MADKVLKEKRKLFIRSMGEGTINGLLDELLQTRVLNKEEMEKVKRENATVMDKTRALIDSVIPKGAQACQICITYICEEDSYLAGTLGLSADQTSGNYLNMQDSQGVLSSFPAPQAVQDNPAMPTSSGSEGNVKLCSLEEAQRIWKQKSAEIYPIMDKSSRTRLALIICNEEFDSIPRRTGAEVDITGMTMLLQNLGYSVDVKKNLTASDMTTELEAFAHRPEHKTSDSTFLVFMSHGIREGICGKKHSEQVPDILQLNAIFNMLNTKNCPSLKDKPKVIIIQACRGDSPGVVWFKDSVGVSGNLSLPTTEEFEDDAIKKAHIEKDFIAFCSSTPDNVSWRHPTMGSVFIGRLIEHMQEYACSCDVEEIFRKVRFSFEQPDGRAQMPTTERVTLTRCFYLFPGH
For `CC(C)[C@H](NC(=O)OCc1ccccc1)C(=O)N[C@@H](C)C(=O)NC(CC(=O)O)C(=O)COc1ccc2ccc(=O)oc2c1` (stereo partly drawn), the Ki was 17 nM. With `O=C[C@H](CC(=O)O)NC(=O)C1CCC2CCC(NC(=O)OCc3ccccc3)C(=O)N21` (stereo partly drawn) the Ki was 36 nM. For `CC(=O)N[C@@H](Cc1ccc(O)cc1)C(=O)N[C@H](C(=O)N[C@@H](C)C(=O)NC(C=O)CCC(=O)O)C(C)C` (stereo partly drawn) (Ac-YVA[ξE]-aldehyde), the Ki was 9 nM. With `CC(=O)N[C@@H](Cc1ccc(O)cc1)C(=O)N[C@H](C(=O)N[C@@H](C)C(=O)NC(C=O)CC(=O)O)C(C)C` (stereo partly drawn) the Ki was 0.76 nM. `CC(C)[C@H](NC(=O)c1ccc2ccccc2c1)C(=O)N1CCC[C@H]1C(=O)NC(C=O)CC(=O)NS(C)(=O)=O` (stereo partly drawn) showed a Ki of 38 nM. For `CC(=O)N[C@@H](Cc1ccc(O)cc1)C(=O)N[C@H](C(=O)N[C@@H](C)C(=O)N[C@@H](CC(=O)O)C(=O)C(=O)NCCc1ccccc1)C(C)C`, the Ki was 9 nM. With `CC(=O)N[C@@H](Cc1ccc(O)cc1)C(=O)N[C@H](C(=O)N1CC(O)C[C@H]1C(=O)NC(C=O)CC(=O)O)C(C)C` (stereo partly drawn) the Ki was 2 nM. With `O=C[C@H](CC(=O)O)NS(=O)(=O)c1ccccc1OCCc1cccc2ccccc12` the Ki was 62 nM. `CC(=O)N[C@@H](Cc1ccc(O)cc1)C(=O)N[C@H](C(=O)N[C@@H](C)C(=O)NCCC(=O)O)C(C)C` (Ac-YVA[βAla]-OH) was tested, and the Ki was 200000 nM. `O=C[C@H](CC(=O)O)NC(=O)[C@@H]1Cc2cccc3c2N1C(=O)[C@@H](NC(=O)c1cccc2ccccc12)CC3` showed a Ki of 10 nM.

What follows are compounds tested against T3, Caspase-1 (Homo sapiens) (UniProt P29466). Conditions: not given.
T3 sequence (whole entry): T2 sequence (P29466 whole entry)
For `CC(=O)N[C@@H](Cc1ccc(O)cc1)C(=O)N[C@H](C(=O)N[C@@H](C)C(=O)NC(C=O)CC(=O)O)C(C)C` (stereo partly drawn), the k on was 380000 M⁻¹ s⁻¹.

These compounds were tested against T4, Caspase-7 (Homo sapiens, UniProt P55210) (assay: Evaluated for kinetic dissociation constant […] for the inhibition of caspase-7). Conditions: read-out: Ki app.
T4 sequence (P55210 whole entry): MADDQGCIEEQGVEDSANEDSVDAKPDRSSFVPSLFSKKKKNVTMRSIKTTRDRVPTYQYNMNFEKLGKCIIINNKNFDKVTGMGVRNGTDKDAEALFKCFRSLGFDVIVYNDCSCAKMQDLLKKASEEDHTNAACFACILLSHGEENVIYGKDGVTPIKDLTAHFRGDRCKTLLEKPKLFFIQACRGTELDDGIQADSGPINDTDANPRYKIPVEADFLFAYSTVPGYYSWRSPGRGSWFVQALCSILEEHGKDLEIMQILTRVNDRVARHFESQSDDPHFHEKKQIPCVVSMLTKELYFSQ
`CN1C(=O)C(=O)c2cc(S(=O)(=O)N3CCC[C@H]3COc3ccccc3)ccc21` was tested, and the Ki was 47 nM.

Each compound was assayed against T2, Caspase-1 (assay: Compound was evaluated for the inhibitory activity against caspase-1). Conditions: not given.
Work on `CC(C)[C@H](NC/C=C/c1ccccc1)C(=O)N1CC(O)C[C@H]1C(=O)NC(CC(=O)O)C(=O)COc1ccccc1` (stereo partly drawn) yielded an IC50 of 13 nM. With `CC(C)[C@H](NC(=O)c1ccccc1)C(=O)N(CC(=O)NC(CC(=O)O)C(=O)c1nc2ccccc2o1)C1Cc2ccccc2C1` (stereo partly drawn) the IC50 was 2 nM. `CC(=O)N[C@@H](Cc1ccc(O)cc1)C(=O)N[C@H](C(=O)N[C@@H](C)C(=O)NC(CC(=O)O)C(=O)CCCCCc1ccccc1)C(C)C` (stereo partly drawn) showed an IC50 of 18.5 nM. With `CC[C@@H](C(=O)NC(CC(=O)O)C(=O)CNCCc1ccccc1)n1cccc(NC(=O)c2ccc3ccccc3c2)c1=O` (stereo partly drawn) the IC50 was 0.37 nM. In the case of `CC(C)[C@H](NC(=O)OCc1ccccc1)C(=O)N[C@@H](C)C(=O)N[C@@H](CC(=O)O)C(=O)c1nccs1`, the Ki is reported as 10000 nM. In the case of `CC(C)[C@H](NC(=O)OCc1ccccc1)C(=O)N[C@@H](C)C(=O)N[C@@H](CC(=O)O)C(=O)c1ncco1`, the Ki is reported as 13000 nM. Work on `CC(C)[C@H](NC(=O)OCc1ccccc1)C(=O)N[C@@H](C)C(=O)N[C@@H](CC(=O)O)C(=O)c1nc(-c2ccccc2)c[nH]1` yielded a Ki of 6300 nM. In the case of `CC(C)[C@H](NC(=O)OCc1ccccc1)C(=O)N[C@@H](C)C(=O)N[C@@H](CC(=O)O)C(=O)c1ncc[nH]1`, the Ki is reported as 8800 nM. `CC(C)[C@H](NC(=O)OCc1ccccc1)C(=O)N[C@@H](C)C(=O)N[C@@H](CC(=O)O)C(=O)c1ncc(-c2ccccc2)o1` was tested, and the Ki was 240 nM. For `CC(C)[C@H](NC(=O)OCc1ccccc1)C(=O)N[C@@H](C)C(=O)NC(CC(=O)O)C(=O)COc1cc2ccccc2cc1C(N)=O` (stereo partly drawn), the IC50 was 1.7 nM. `O=C(O)C[C@H](NC(=O)C(c1ccccc1)n1cccc(NC(=O)c2cccc3ccccc23)c1=O)C(=O)COc1ccccc1` (stereo partly drawn) was tested, and the IC50 was 10 nM. `CCCCC(C(=O)N[C@@H](CC(=O)O)C(=O)COc1ccccc1)n1cncc(NC(=O)c2cccc3ccccc23)c1=O` (stereo partly drawn) showed an IC50 of 46 nM. For `CC(C)[C@H](CC(=O)NCCc1cn(C)c2ccccc12)C(=O)NC(CC(=O)O)C(=O)CNS(=O)(=O)CC12CCC(CC1=O)C2(C)C` (stereo partly drawn), the IC50 was 0.4 nM. Work on `CC(C)[C@H](NC(=O)OCc1ccccc1)C(=O)N[C@@H](C)C(=O)NC(CC(=O)O)C(=O)COC(=O)CCc1ccccc1` (stereo partly drawn) yielded an IC50 of 1.9 nM.

Target: T3, Caspase-1 (Homo sapiens)
Conditions: not given
Remark: another data set of the same source
`CC(C)[C@H](NC(=O)OCc1ccccc1)C(=O)N[C@@H](C)C(=O)NC(CC(=O)O)C(=O)COc1cc2ccccc2cc1C(N)=O` (stereo partly drawn) showed a k on of 430000 M⁻¹ s⁻¹.
